Patent publication US11732029B2, “Methods and compositions for the treatment of wounds” (The University of Chicago, priority 2017, dated 2023)
Like-named read-outs stand apart in the source and are kept apart here.

Legend:
[1] = Ishihara et al. 2018; Martino et al. 2013; cited from earlier work
GFs = test: GF binding to synthesized laminin peptides (ELISA), all tested GFs together; design: species or system human; key to Interaction with GFs: ++ indicates high affinities; + indicates medium/low affinities; details: summary Table 2
Method: (§1) ELISA tests were performed as described above. In brief, ELISA plates were coated with 1 μg/mL of laminin alpha 3 LG domain recombinant protein, laminin alpha 4 LG domain recombinant protein (R&D systems), laminin alpha 5 LG domain recombinant protein (LD BioPharma), or laminin peptide (sequences are described in Table 1, chemically synthesized by Genscript) in PBS for 2 hrs at 37° C. 1 μg/mL of BSA served as non-binding protein control. After blocking with 2% BSA PBS-0.05% Tween 20 (PBS-T) solution, 1 μg/mL of the recombinant human proteins (VEGF-A121, VEGF-A165, PlGF-1, PlGF-2, PDGF-BB or FGF-2) or 10 μg/mL of biotinylated heparin (Sigma-Aldrich) were added. Bound GF was detected with biotinylated antibodies for human VEGF, PlGF, PDGF-BB, or FGF-2 (R&D Systems). The antibodies were detected by streptavidin-HRP (R&D Systems).

VEGF-A165 = target: T1, VEGF-A165 (Homo sapiens, UniProt P15692); test: GF binding to recombinant laminin LG domain protein and synthesized laminin HBD peptides (ELISA); details: plate coated with LG domain protein or peptide, 1 μg/mL GF, vs BSA-coated wells
T1 construct: All growth factors (GFs) and chemokines were purchased in their mature forms; purchased PeproTech; host or cells: Escherichia coli
T1 sequence (P15692 27-191 isoform P15692-4 limits assumed): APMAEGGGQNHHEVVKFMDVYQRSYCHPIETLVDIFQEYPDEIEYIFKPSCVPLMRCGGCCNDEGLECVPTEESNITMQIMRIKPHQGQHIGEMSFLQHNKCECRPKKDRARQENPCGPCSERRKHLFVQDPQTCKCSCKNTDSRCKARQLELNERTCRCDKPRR
Method: as §1

PDGF-BB = target: T2, PDGF-BB (Homo sapiens, UniProt P01127); test: as above; details: plate coated with LG domain protein or peptide, 1 μg/mL GF, vs BSA-coated wells
T2 construct: All growth factors (GFs) and chemokines were purchased in their mature forms; purchased PeproTech; host or cells: Escherichia coli
Method: as §1

[2] = system: syndecan-1, syndecan-2, syndecan-3, syndecan-4; test: Recombinant syndecan binding to synthesized laminin HBD peptides (ELISA); design: species or system human; key to Interaction with Syndecans: ++ indicates high affinities; + indicates medium/low affinities
Method: ELISA tests were performed as described above. In brief, ELISA plates were coated with 1 μg/mL laminin peptide (sequences are described in Table 1, chemically synthesized by Genscript) in PBS for 2 hrs at 37° C. 1 μg/mL of BSA served as non-binding protein control. After blocking with 2% BSA PBS-T solution, 1 μg/mL of the recombinant human syndecan-1, syndecan-2, syndecan-3, syndecan-4 (all syndecan proteins are histidine-tagged; SinoBiological) were added. Bound GF was detected with anti-histidine tag antibody (1:1000 dilution, BioLegend).

FGF-2 = FGF-2 (Homo sapiens, UniProt P09038); test: GF binding to recombinant laminin LG domain protein and synthesized laminin HBD peptides (ELISA); design: All growth factors (GFs) and chemokines were purchased in their mature forms; purchased PeproTech; host or cells: Escherichia coli; details: plate coated with LG domain protein or peptide, 1 μg/mL GF, vs BSA-coated wells
FGF-2, sequence (P09038 143-288): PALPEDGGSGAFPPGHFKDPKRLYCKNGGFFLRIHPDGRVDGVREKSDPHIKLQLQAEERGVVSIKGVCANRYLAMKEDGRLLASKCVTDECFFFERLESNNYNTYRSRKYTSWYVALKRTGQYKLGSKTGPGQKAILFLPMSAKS
Method: as §1

PlGF-2 = target: T3, PlGF-2 (Homo sapiens, UniProt P49763); test: as above; design: All growth factors (GFs) and chemokines were purchased in their mature forms; purchased PeproTech; host or cells: Escherichia coli; details: plate coated with LG domain protein or peptide, 1 μg/mL GF, vs BSA-coated wells
T3 sequence (P49763 19-170 isoform P49763-3 limits assumed): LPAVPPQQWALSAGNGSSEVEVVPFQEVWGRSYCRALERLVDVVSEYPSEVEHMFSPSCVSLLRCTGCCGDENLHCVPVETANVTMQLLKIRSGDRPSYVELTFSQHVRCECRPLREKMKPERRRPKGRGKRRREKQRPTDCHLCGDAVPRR
Method: as §1

human lung fibroblasts = test: Cell adhesion assay, fibroblasts on laminin peptide coated plates; type: cell-based; design: key to Cell adhesion Fibroblasts: ++ indicates high affinities; + indicates medium/low affinities
Method: (§2) 96-well plates (non-tissue culture treated, Greiner Bio-one) were pre-coated with 1 μg/mL with laminin HBD peptides in PBS for 2 hrs at 37° C., followed by blocking with 2% BSA PBS for 1 h at RT. Cell adhesion assays were performed using human lung fibroblasts (Lonza) in FGM-2 medium (Lonza) or human umbilical vein endothelial cells (HUVEC; Lonza) in EGM-2 medium (Lonza) supplemented with 1% fetal bovine serum (FBS) and […] VEGF-A165, with or without 5 mM EDTA (Sigma-Aldrich). Cells were plated at 3000 cells/well on laminin peptide pre-coated plates and incubated for 30 min at 37° C., 5% CO2. Then, the medium was removed, and wells were quickly washed three times with PBS. Cell numbers were quantified using a CyQUANT assay, according to the manufacturer's instructions (Invitrogen). All cell lines were checked for mycoplasma contamination and used in passages from 5 to 8.

HUVEC cells = test: Migration assay (transwell); type: cell-based, human; details: 6 hr, 30 ng/mL VEGF-A165 with or without 0.1 μM peptide
Method: A migration assay was performed as described previously^3. A QCM 24-Well Colorimetric Cell Migration Assay kit was used to perform migration assay. Both sides of inserts were coated with 0.1 μM of bovine collagen I (C4243, Sigma-Aldrich) for 1 hr at 37° C. Then, the inserts were washed with water, dried in a laminar flow cabinet and disposed on 24-well cell culture plate covers. Solutions containing 30 ng/mL of VEGF-A165 preincubated with or without 0.1 μM of α33043-3067 peptide in medium (MCDB-131, 0.05% BSA) were added to the bottom side of the transwell (500 μL/well). Directly thereafter, HUVEC cells in medium containing 0.05% BSA (300 μL/transwell, 4×10^4 cells/transwell) were added to the transwell upper parts. After 6 hr, migrated cells were stained and absorbance at 560 nm was measured according to the manufacturer's instructions.

HUVEC = test: Cell adhesion assay, HUVEC on laminin peptide coated plates; type: cell-based, human; design: key to Cell adhesion HUVECs: ++ indicates high affinities; + indicates medium/low affinities
Method: as §2

[3] = Heparin binding to synthesized laminin peptides (ELISA); design: key to Interaction with Heparin: ++ indicates high affinities; + indicates medium/low affinities
Method: as §1

[4] = system: wound healing in the db/db mouse; details: cited from earlier work
[5] = peptide-coated plates, 30 min at 37° C., without EDTA

Molecule: GCGGSLRPAPPPISGGGYRARPAKAAATQKKVERKAPDA [FgHBD]
- binding to heparin [1]: bind to heparin

Molecule: RLVFALGTDGKKLRIKSKEKCNDGK [α33043-3067, laminin α3 chain LG4-derived peptide, 25 aa]
- Interaction with GFs (GFs): ++
- binding to VEGF-A165 (VEGF-A165): bound
- binding to PDGF-BB (PDGF-BB): bound
- binding to recombinant syndecans (syndecan 1-4) ([2]; ELISA, peptide-coated plate, 1 μg/mL syndecan): significant binding
- Interaction with Syndecans ([2]; summary Table 2): ++
- binding to FGF-2 (FGF-2): bound
- binding to PlGF-2 (PlGF-2): bound
- fibroblast attachment (human lung fibroblasts; [5]): enhancement of fibroblast attachment
- Cell adhesion Fibroblasts (human lung fibroblasts; summary Table 2): ++
- degree of migration of HUVEC cells (HUVEC cells): did not increase the degree of cell migration
- HUVEC attachment in the presence of EDTA (HUVEC; peptide-coated plates, 30 min, 5 mM EDTA): even in the presence of EDTA
- HUVEC attachment (HUVEC; [5]): promoted HUVEC attachment
- Cell adhesion HUVECs (HUVEC; summary Table 2): ++
- binding to heparin ([3]; ELISA, peptide-coated plate, 10 μg/mL biotinylated heparin): bound to heparin
- Interaction with Heparin ([3]; summary Table 2): ++

B1: LamLG4: laminin α-chain LG4 domain used as growth factor-binding domain (protein)
chain: SLNKPPFLMLLKGSTRFNKTKTFRINQLLQDTPVASPRSVKVWQDACSPLPKTQANHGALQFGDIPTSHLLFKLPQELLKPRSQFAVDMQTTSSRGLVFHTGTKNSFMALYLSKGRLVFALGTDGKKLRIKSKEKCNDGKWHTVVFGHDGEKGRLVVDGLRAREGSLPGNSTISIRAPVYLGSPPSGKPKSLPTNSFVGCLKNFQLDSKPLYTPSSSFGVSSCTG
- binding to heparin [1]: bind to heparin

B2: PDGF-BB: platelet-derived growth factor-BB; Regranex in the clinic (protein)
chain: SLGSLTIAEPAMIAECKTRTEVFEISRRLIDRTNANFLVWPPCVEVQRCSGCCNNRNVQCRPTQVQLRPVQVRKIEIVRKKPIFKKATVTLEDHLACKCETVAAARPVT
- wound healing in the db/db mouse ([4]; 10 μg per wound): did not significantly enhance wound healing

B3: VEGF-A165: vascular endothelial growth factor-A165, recombinant (PeproTech) (protein)
chain: APMAEGGGQNHHEVVKFMDVYQRSYCHPIETLVDIFQEYPDEIEYIFKPSCVPLMRCGGCCNDEGLECVPTEESNITMQIMRIKPHQGQHIGEMSFLQHNKCECRPKKDRARQENPCGPCSERRKHLFVQDPQTCKCSCKNTDSRCKARQLELNERTCRCDKPRR
- wound healing in the db/db mouse ([4]; 20 μg per wound applied topically for five consecutive days): promote wound healing
- degree of migration of HUVEC cells (HUVEC cells): increases the degree of migration
